Results from US11643388B2, “Inhibitors of alpha 2 beta 1 integrin and methods of use thereof” (The Regents of the University of California, priority 2020, dated 2023).

Biological target: α2β1 (Homo sapiens, UniProt P05556+P17301)
Assay: α2β1 cell adhesion
Assay type: cell-based

α2β1, sequence (P17301 30-1181): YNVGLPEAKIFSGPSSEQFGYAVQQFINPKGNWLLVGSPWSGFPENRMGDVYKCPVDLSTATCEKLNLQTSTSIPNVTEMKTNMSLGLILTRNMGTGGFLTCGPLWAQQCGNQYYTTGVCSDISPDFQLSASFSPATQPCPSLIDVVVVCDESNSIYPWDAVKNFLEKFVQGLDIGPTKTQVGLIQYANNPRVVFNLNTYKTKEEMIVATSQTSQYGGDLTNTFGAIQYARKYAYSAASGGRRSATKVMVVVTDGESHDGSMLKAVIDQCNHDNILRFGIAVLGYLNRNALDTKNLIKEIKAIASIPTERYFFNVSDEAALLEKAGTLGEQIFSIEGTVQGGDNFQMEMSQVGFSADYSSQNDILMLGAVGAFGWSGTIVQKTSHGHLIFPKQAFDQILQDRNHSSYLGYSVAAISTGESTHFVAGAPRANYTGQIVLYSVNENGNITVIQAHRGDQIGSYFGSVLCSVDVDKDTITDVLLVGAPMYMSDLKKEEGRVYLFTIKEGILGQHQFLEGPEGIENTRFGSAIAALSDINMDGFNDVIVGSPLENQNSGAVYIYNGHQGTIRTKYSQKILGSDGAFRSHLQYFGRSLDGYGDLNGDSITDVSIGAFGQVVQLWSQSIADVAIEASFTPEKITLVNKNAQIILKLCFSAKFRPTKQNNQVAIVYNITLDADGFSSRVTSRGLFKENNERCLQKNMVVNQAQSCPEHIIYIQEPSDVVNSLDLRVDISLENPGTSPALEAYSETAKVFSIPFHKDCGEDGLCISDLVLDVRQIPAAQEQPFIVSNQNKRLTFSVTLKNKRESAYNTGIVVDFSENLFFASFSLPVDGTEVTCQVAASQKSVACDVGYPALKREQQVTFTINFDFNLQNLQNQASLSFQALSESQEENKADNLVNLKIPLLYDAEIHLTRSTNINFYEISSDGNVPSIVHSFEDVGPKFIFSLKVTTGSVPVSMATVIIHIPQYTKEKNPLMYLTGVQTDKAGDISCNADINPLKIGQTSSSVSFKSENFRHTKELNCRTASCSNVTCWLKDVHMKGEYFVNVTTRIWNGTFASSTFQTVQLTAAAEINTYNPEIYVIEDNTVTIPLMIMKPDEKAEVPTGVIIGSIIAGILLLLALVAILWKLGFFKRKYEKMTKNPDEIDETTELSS
α2β1, sequence (P05556 21-798): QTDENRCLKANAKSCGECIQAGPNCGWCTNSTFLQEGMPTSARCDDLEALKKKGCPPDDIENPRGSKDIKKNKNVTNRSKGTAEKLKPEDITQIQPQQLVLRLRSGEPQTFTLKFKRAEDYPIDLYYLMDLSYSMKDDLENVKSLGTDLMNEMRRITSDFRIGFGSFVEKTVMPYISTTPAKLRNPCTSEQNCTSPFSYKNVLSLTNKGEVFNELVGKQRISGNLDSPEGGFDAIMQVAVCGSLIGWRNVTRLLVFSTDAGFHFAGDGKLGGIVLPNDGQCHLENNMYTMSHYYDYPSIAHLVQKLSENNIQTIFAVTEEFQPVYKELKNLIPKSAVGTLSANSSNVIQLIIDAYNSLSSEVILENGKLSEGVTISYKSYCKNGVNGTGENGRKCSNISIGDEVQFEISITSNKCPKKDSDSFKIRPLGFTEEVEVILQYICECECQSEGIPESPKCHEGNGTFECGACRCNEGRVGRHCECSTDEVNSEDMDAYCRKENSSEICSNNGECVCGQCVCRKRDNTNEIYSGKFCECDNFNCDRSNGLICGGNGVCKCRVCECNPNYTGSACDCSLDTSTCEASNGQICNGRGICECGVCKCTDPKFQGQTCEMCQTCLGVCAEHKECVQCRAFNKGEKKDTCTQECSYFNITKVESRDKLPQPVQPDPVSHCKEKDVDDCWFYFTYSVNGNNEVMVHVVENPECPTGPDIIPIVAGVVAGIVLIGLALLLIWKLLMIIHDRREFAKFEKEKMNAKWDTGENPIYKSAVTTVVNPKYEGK

Structure (SMILES): CC(C)c1cccc(Nc2ccc(Cl)c(C(=O)N[C@@H](CNC(=O)N[C@@H]3CCc4ccccc43)C(=O)O)c2Cl)c1 [SU15210-0078-01, (S)-2-(2,6-dichloro-3-(3-isopropylphenylamino)benzamido)-3-(3-((R)-2,3-dihydro-1H-inden-1-yl)ureido)propanoic Acid]
- IC50: 0.5 to 1 µM

Structure (SMILES): Nc1ccc(Cl)c(C(=O)N[C@@H](CNC(=O)N[C@@H]2CCc3ccccc32)C(=O)O)c1Cl [SU15210-0084-01, (S)-2-(3-amino-2,6-dichlorobenzamido)-3-(3-((R)-2,3-dihydro-1H-inden-1-yl)ureido)propanoic Acid]
- IC50: 0.5 to 1 µM

Structure (SMILES): O=C(NC[C@H](NC(=O)c1c(Cl)ccc(NCCc2ccccc2)c1Cl)C(=O)O)N[C@@H]1CCc2ccccc21 [SU15210-0097-01, (S)-2-(2,6-dichloro-3-(phenethylamino)benzamido)-3-(3-((R)-2,3-dihydro-1H-inden-1-yl)ureido)propanoic Acid]
- IC50: 1 to 5 µM

Structure (SMILES): CC(C)CCNc1ccc(Cl)c(C(=O)N[C@@H](CNC(=O)N[C@@H]2CCc3ccccc32)C(=O)O)c1Cl [SU15210-0125-01, (S)-2-(2,6-dichloro-3-(isopentylamino)benzamido)-3-(3-((R)-2,3-dihydro-1H-inden-1-yl)ureido)propanoic Acid]
- IC50: 1 to 5 µM

Structure (SMILES): O=C(NC[C@H](NC(=O)c1c(Cl)ccc(NC2CCc3ccccc3C2)c1Cl)C(=O)O)N[C@@H]1CCc2ccccc21 (stereo partly drawn) [SU15210-0126-01, (2S)-2-(2,6-dichloro-3-(1,2,3,4-tetrahydronaphthalen-2-ylamino)benzamido)-3-(3-((R)-2,3-dihydro-1H-inden-1-yl)ureido)propanoic Acid]
- IC50: 1 to 5 µM

Structure (SMILES): O=C(NC[C@H](NC(=O)c1c(Cl)cc(-c2ccccc2)cc1Cl)C(=O)O)N[C@@H]1CCc2ccccc21 [SU15210-0140-01]
- IC50: > 5 µM

Structure (SMILES): Cc1ccc(CC(=O)Nc2ccc(Cl)c(C(=O)N[C@@H](CNC(=O)N[C@@H]3CCc4ccccc43)C(=O)O)c2Cl)cc1Cl [SU15210-0154-01, (S)-2-(2,6-dichloro-3-(2-(3-chloro-4-methylphenyl)acetamido)benzamido)-3-(3-((R)-2,3-dihydro-1H-inden-1-yl)ureido)propanoic Acid]
- IC50: 1 to 5 µM

Structure (SMILES): O=C(Cc1ccc(F)c(Cl)c1)Nc1ccc(Cl)c(C(=O)N[C@@H](CNC(=O)N[C@@H]2CCc3ccccc32)C(=O)O)c1Cl [SU15210-0155-01, (S)-2-(2,6-dichloro-3-(2-(3-chloro-4-fluorophenyl)acetamido)benzamido)-3-(3-((R)-2,3-dihydro-1H-inden-1-yl)ureido)propanoic Acid]
- IC50: 0.5 to 1 µM

Structure (SMILES): Cc1cccc(CC(=O)Nc2ccc(Cl)c(C(=O)N[C@@H](CNC(=O)N[C@@H]3CCc4ccccc43)C(=O)O)c2Cl)c1 [SU15210-0156-01, (S)-2-(2,6-dichloro-3-(2-m-tolylacetamido)benzamido)-3-(3-((R)-2,3-dihydro-1H-inden-1-yl)ureido)propanoic Acid]
- IC50: 0.5 to 1 µM

Structure (SMILES): O=C(Cc1cccc(Cl)c1)Nc1ccc(Cl)c(C(=O)N[C@@H](CNC(=O)NCc2ccccc2O)C(=O)O)c1Cl [SU15210-0159-01, (S)-2-(2,6-dichloro-3-(2-(3-chlorophenyl)acetamido)benzamido)-3-(3-(2-hydroxybenzyl)ureido)propanoic Acid]
- IC50: < 0.5 µM

Structure (SMILES): O=C(NC[C@H](NC(=O)c1c(Cl)ccc(N2CC(c3ccc(Cl)cc3)C2)c1Cl)C(=O)O)N[C@@H]1CCc2ccccc21 [SU15210-0163-01, (S)-2-(2,6-dichloro-3-(3-(4-chlorophenyl)azetidin-1-yl)benzamido)-3-(3-((R)-2,3-dihydro-1H-inden-1-yl)ureido)propanoic Acid]
- IC50: 1 to 5 µM

Structure (SMILES): O=C(NC[C@H](NC(=O)c1c(Cl)cc2c(c1Cl)CCNC2)C(=O)O)N[C@@H]1CCc2ccccc21 [SU15210-0171-01]
- IC50: > 5 µM

Structure (SMILES): CC(=O)N1CCc2c(cc(Cl)c(C(=O)N[C@@H](CNC(=O)N[C@@H]3CCc4ccccc43)C(=O)O)c2Cl)C1 [SU15210-0174-01]
- IC50: 1 to 5 µM

Structure (SMILES): CC1(C)CCC(NC(=O)NC[C@H](NC(=O)c2c(Cl)cc(C(=O)NCc3cccc(O)c3)cc2Cl)C(=O)O)c2ccccc21 (stereo partly drawn) [SU15210-0187-01, (2S)-2-(2,6-dichloro-4-(3-hydroxybenzylcarbamoyl)benzamido)-3-(3-(4,4-dimethyl-1,2,3,4-tetrahydronaphthalen-1-yl)ureido)propanoic Acid]
- IC50: < 0.5 µM

Structure (SMILES): O=C(NC[C@H](NC(=O)c1c(Cl)cc(OCCc2ccccc2)cc1Cl)C(=O)O)N[C@@H]1CCc2ccccc21 [SU15210-0188-01, (S)-2-(2,6-dichloro-4-phenethoxybenzamido)-3-(3-((R)-2,3-dihydro-1H-inden-1-yl)ureido)propanoic Acid]
- IC50: 1 to 5 µM

Structure (SMILES): O=C(NC[C@H](NC(=O)c1c(Cl)cc(COCc2ccccc2)cc1Cl)C(=O)O)N[C@@H]1CCc2ccccc21 [SU15210-0189-01, (S)-2-(4-(benzyloxymethyl)-2,6-dichlorobenzamido)-3-(3-((R)-2,3-dihydro-1H-inden-1-yl)ureido)propanoic Acid]
- IC50: 0.5 to 1 µM

Structure (SMILES): O=C(NC[C@H](NC(=O)c1c(Cl)cc(N2CC(c3ccccc3)C2)cc1Cl)C(=O)O)N[C@@H]1CCc2ccccc21 [SU15210-0190-01]
- IC50: > 5 µM

Structure (SMILES): O=C(NC[C@H](NC(=O)c1c(Cl)cc(-n2cnc(-c3ccccc3)c2)cc1Cl)C(=O)O)N[C@@H]1CCc2ccccc21 [SU15210-0192-01, (S)-2-(2,6-dichloro-4-(4-phenyl-1H-imidazol-1-yl)benzamido)-3-(3-((R)-2,3-dihydro-1H-inden-1-yl)ureido)propanoic Acid]
- IC50: 1 to 5 µM

Structure (SMILES): O=C(NC[C@H](NC(=O)c1c(Cl)cc2c(c1Cl)CCN(C(=O)c1ccc(Cl)cc1)C2)C(=O)O)N[C@@H]1CCc2ccccc21 [SU15210-0208-01, (S)-2-(5,7-dichloro-2-(4-chlorobenzoyl)-1,2,3,4-tetrahydroisoquinoline-6-carboxamido)-3-(3-((R)-2,3-dihydro-1H-inden-1-yl)ureido)propanoic Acid]
- IC50: < 0.5 µM

Structure (SMILES): O=C(NC[C@H](NC(=O)c1c(Cl)cc2c(c1Cl)CCN(C(=O)c1cccc(Cl)c1)C2)C(=O)O)N[C@@H]1CCc2ccccc21 [SU15210-0209-01, (S)-2-(5,7-dichloro-2-(3-chlorobenzoyl)-1,2,3,4-tetrahydroisoquinoline-6-carboxamido)-3-(3-((R)-2,3-dihydro-1H-inden-1-yl)ureido)propanoic Acid]
- IC50: < 0.5 µM

Structure (SMILES): O=C(NC[C@H](NC(=O)c1c(Cl)cc2c(c1Cl)CCN(Cc1ccc(F)cc1)C2)C(=O)O)N[C@@H]1CCc2ccccc21 [SU15210-0210-01, (S)-2-(5,7-dichloro-2-(4-fluorobenzyl)-1,2,3,4-tetrahydroisoquinoline-6-carboxamido)-3-(3-((R)-2,3-dihydro-1H-inden-1-yl)ureido)propanoic Acid]
- IC50: 1 to 5 µM

Structure (SMILES): O=C(NC[C@H](NC(=O)c1c(Cl)cc2c(c1Cl)CCN(Cc1ccccc1)C2=O)C(=O)O)N[C@@H]1CCc2ccccc21 [SU15210-0211-01, (S)-2-(2-benzyl-5,7-dichloro-1-oxo-1,2,3,4-tetrahydroisoquinoline-6-carboxamido)-3-(3-((R)-2,3-dihydro-1H-inden-1-yl)ureido)propanoic Acid]
- IC50: < 0.5 µM

Structure (SMILES): O=C(NC[C@H](NC(=O)c1c(Cl)cc2c(c1Cl)CCN(S(=O)(=O)c1ccccc1)C2)C(=O)O)N[C@@H]1CCc2ccccc21 [SU15210-0214-01, (S)-2-(5,7-dichloro-2-(phenylsulfonyl)-1,2,3,4-tetrahydroisoquinoline-6-carboxamido)-3-(3-((R)-2,3-dihydro-1H-inden-1-yl)ureido)propanoic Acid]
- IC50: 1 to 5 µM

Structure (SMILES): CN(Cc1ccccc1)C(=O)NC[C@H](NC(=O)c1c(Cl)cc(C(=O)NCc2cccc(Cl)c2)cc1Cl)C(=O)O [SU15210-0223-01, (S)-3-(3-benzyl-3-methylureido)-2-(2,6-dichloro-4-(3-chlorobenzylcarbamoyl)benzamido)propanoic Acid]
- IC50: < 0.5 µM

Structure (SMILES): C[C@H](NC(=O)c1cc(Cl)c(C(=O)N[C@@H](CNC(=O)N[C@@H]2CCc3ccccc32)C(=O)O)c(Cl)c1)c1ccccc1 [SU15210-0224-01, (S)-2-(2,6-dichloro-4-((S)-1-phenylethylcarbamoyl)benzamido)-3-(3-((R)-2,3-dihydro-1H-inden-1-yl)ureido)propanoic Acid]
- IC50: 1 to 5 µM

Structure (SMILES): C[C@@H](NC(=O)c1cc(Cl)c(C(=O)N[C@@H](CNC(=O)N[C@@H]2CCc3ccccc32)C(=O)O)c(Cl)c1)c1ccccc1 [SU15210-0225-01, (S)-2-(2,6-dichloro-4-((R)-1-phenylethylcarbamoyl)benzamido)-3-(3-((R)-2,3-dihydro-1H-inden-1-yl)ureido)propanoic Acid]
- IC50: < 0.5 µM

Structure (SMILES): CN(Cc1cccc(Cl)c1)C(=O)c1cc(Cl)c(C(=O)N[C@@H](CNC(=O)N[C@@H]2CCc3ccccc32)C(=O)O)c(Cl)c1 [SU15210-0226-01, (S)-2-(2,6-dichloro-4-((3-chlorobenzyl)(methyl)carbamoyl)benzamido)-3-(3-((R)-2,3-dihydro-1H-inden-1-yl)ureido)propanoic Acid]
- IC50: 0.5 to 1 µM

Structure (SMILES): O=C(NC[C@H](NC(=O)c1c(Cl)cc(C(=O)N2CCc3ccccc3C2)cc1Cl)C(=O)O)N[C@@H]1CCc2ccccc21 [SU15210-0227-01, (S)-2-(2,6-dichloro-4-(1,2,3,4-tetrahydroisoquinoline-2-carbonyl)benzamido)-3-(3-((R)-2,3-dihydro-1H-inden-1-yl)ureido)propanoic Acid]
- IC50: 0.5 to 1 µM

Structure (SMILES): O=C(NC[C@H](NC(=O)c1c(Cl)cc(C(=O)N2Cc3ccccc3C2)cc1Cl)C(=O)O)N[C@@H]1CCc2ccccc21 [SU15210-0228-01, (S)-2-(2,6-dichloro-4-(isoindoline-2-carbonyl)benzamido)-3-(3-((R)-2,3-dihydro-1H-inden-1-yl)ureido)propanoic Acid]
- IC50: 1 to 5 µM

Structure (SMILES): O=C(NC[C@H](NC(=O)c1c(Cl)cc(C(=O)N2CC(c3ccccc3)C2)cc1Cl)C(=O)O)N[C@@H]1CCc2ccccc21 [SU15210-0234-01]
- IC50: < 0.5 µM

Structure (SMILES): O=C(Cc1cccc(Cl)c1)Nc1cc(Cl)c(C(=O)N[C@@H](CNC(=O)N[C@@H]2CCc3ccccc32)C(=O)O)c(Cl)c1 [SU15210-0235-01, (S)-2-(2,6-dichloro-4-(2-(3-chlorophenyl)acetamido)benzamido)-3-(3-((R)-2,3-dihydro-1H-inden-1-yl)ureido)propanoic Acid]
- IC50: < 0.5 µM
